The conditions of data set [1]: Crystal; DTA.
A short description of data set [2]: Molar enthalpy of transition or fusion. The conditions noted are these: Crystal; DSC.

Results on one molecule are retold here after the NIST ThermoML archive (doi:10.1021/je0504360).

Numbers after ± are expanded uncertainties.

`COc1ccc2cc3[n+](cc2c1OC)CCc1cc2c(cc1-3)OCO2.[Cl-]`: the Normal melting temperature in data set [1] amounted to 200.1 ± 1.1 °C. Also, in data set [2], the “Molar enthalpy of transition or fusion” value is 9.53 ± 0.213 kcal/mol.
